Source: patent EP0989983B1 (SCHERING CORPORATION, priority 1997, dated 1998)
pIC50: −log10 of the molar value. “And” between values parts separate entries of the source, which are not always exact repeats. Equal values may be shown once.

Target: farnesyl protein transferase (Homo sapiens, UniProt P49354+P49356)
Experiment: FPT IC50, inhibition of farnesyl protein transferase, in vitro enzyme assay (procedure of WO 95/10516)
Assay type: biochemical
Conditions: several values in a cell are repeat determinations, read-out: FPT C50
Procedure: FPT IC50 (inhibition of farnesyl protein transferase, in vitro enzyme assay). and COS Cell IC50 (Cell-Based Assay) were determined following the assay procedures described in WO 95/10516, published April 20, 1995. GGPT IC50 (inhibition of geranylgeranyl protein transferase, in vitro enzyme assay), Cell Mat Assay, and anti-tumor activity (in vivo anti-tumor studies) could be determined by the assay procedures described in WO 95/10516. The disclosure of WO 95/10516 is incorporated herein by reference thereto.

Row | pIC50 | Compound
1 | < 6.82 | O=C(NCCCN1CCCC1=O)C1CN(C2c3ncc(Br)cc3CCc3cc(Cl)cc(Br)c32)CCN1 (stereo not drawn) [Compound 216, 4-(3,10-DIBROMO-8-CHLORO-6,11-DIHYDRO-5H-BENZO[5,6] CYCLOHEPTA[1,2-b]PYRIDIN-11-YL)-N-[3-(2-OXO-1-PYRROLIDINYL)PROPYL]-2-PIPERAZINECARBOXAMIDE]
2 | 8.14 and 8.17 | O=C(NCCc1c[nH]cn1)C1CN(C2c3ccc(Cl)cc3CCc3cc(Br)cnc32)CCN1C(=O)NC1CCCCC1 (stereo not drawn) [Compound 227]

Row | Compound | pIC50
3 | COCC(=O)N1CCN(C2c3ncc(Br)cc3CCc3cc(Cl)cc(Br)c32)CC1C(=O)NCCCN1CCCC1=O (stereo not drawn) [Compound 218] | 7.32
